Data from ChEMBL document CHEMBL1201862, “PubChem BioAssay data set” (2004).
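Step 1: Grow cells in 96-well plates. Step 2: Expose to compound for 48 hours at 5 concentrations. Step 3: Interpolate endpoints linearly; if unreached, use highest concentration. GI50 is the concentration that inhibits growth by half.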 Calls of active or inactive are those of the source. Rule as the data show it: active = GI50 up to about 1.1 µM and inactive = higher.

Experiments:
Assay in all cases: NCI tumour cell line growth inhibition, 48 h
786-0 = test system: 786-0
DU-145 = test system: DU-145
HCC 2998 = test system: HCC 2998
HL-60 = test system: HL-60
HT-29 = test system: HT-29
LOX IMVI = test system: LOX IMVI
MCF7 = test system: MCF7
MDA-N = test system: MDA-N
Malme-3M = test system: Malme-3M
NCI-H226 = test system: NCI-H226
OVCAR-3 = test system: OVCAR-3
SF-539 = test system: SF-539
SK-MEL-28 = test system: SK-MEL-28
SK-MEL-2 = test system: SK-MEL-2
UACC-62 = test system: UACC-62
UO-31 = test system: UO-31

Row | SMILES | GI50 (786-0) | GI50 (DU-145) | GI50 (HCC 2998) | GI50 (HL-60) | GI50 (HT-29) | GI50 (LOX IMVI) | GI50 (MCF7) | GI50 (MDA-N) | GI50 (Malme-3M) | GI50 (NCI-H226) | GI50 (OVCAR-3) | GI50 (SF-539) | GI50 (SK-MEL-28) | GI50 (SK-MEL-2) | GI50 (UACC-62) | GI50 (UO-31)
1 | CC(=O)NNc1nc(C)c(C(/C=C/c2ccc([N+](=O)[O-])cc2)=N/N)s1 | > 100 µM (inactive) | 96.4 µM (inactive) | 66.1 µM (inactive) | 21 µM (inactive) | > 100 µM (inactive) | 86.9 µM (inactive) | > 100 µM (inactive) | > 100 µM (inactive) | > 100 µM (inactive) | > 100 µM (inactive) | > 100 µM (inactive) | > 100 µM (inactive) | > 100 µM (inactive) | > 100 µM (inactive) | > 100 µM (inactive) | > 100 µM (inactive)
2 | O=C(CCCl)NN=C1NCCN1 | > 100 µM (inactive) | > 100 µM (inactive) | > 100 µM (inactive) | > 100 µM (inactive) | > 100 µM (inactive) | > 100 µM (inactive) | > 100 µM (inactive) | > 100 µM (inactive) | > 100 µM (inactive) | > 100 µM (inactive) | > 100 µM (inactive) | > 100 µM (inactive) | > 100 µM (inactive) | > 100 µM (inactive) | > 100 µM (inactive) | > 100 µM (inactive)
3 | CCC(CS(=O)(=O)O)[N+](=O)[O-] (stereo unspecified) | > 100 µM (inactive) | > 100 µM (inactive) | > 100 µM (inactive) | > 100 µM (inactive) | > 100 µM (inactive) | > 100 µM (inactive) | > 100 µM (inactive) | > 100 µM (inactive) | > 100 µM (inactive) | > 100 µM (inactive) | > 100 µM (inactive) | > 100 µM (inactive) | > 100 µM (inactive) | > 100 µM (inactive) | > 100 µM (inactive) | > 100 µM (inactive)
4 | C[C@]12CC[C@H](O)CC1=CC[C@@H]1[C@@H]2CC[C@]2(C)C(=N/O)/C(=C/c3ccc([N+](=O)[O-])cc3)C[C@@H]12 | 3.03 µM (inactive) | 6.73 µM (inactive) | 2.37 µM (inactive) | 1.91 µM (inactive) | 6.15 µM (inactive) | 8.34 µM (inactive) | 3.78 µM (inactive) | 6.93 µM (inactive) | 7.43 µM (inactive) | 1.16 µM (inactive) | 1.76 µM (inactive) | 4.09 µM (inactive) | 5.9 µM (inactive) | 4.53 µM (inactive) | 10.9 µM (inactive) | 8.22 µM (inactive)
5 | CCC(CC)C(=O)OC[n+]1cccc(-c2c(COC(=O)NC(C)C)c(COC(=O)NC(C)C)c3n2CCC3)c1 | 50 µM (inactive) | > 100 µM (inactive) | > 100 µM (inactive) | 33.1 µM (inactive) | > 100 µM (inactive) | > 100 µM (inactive) | 64.9 µM (inactive) | > 100 µM (inactive) | > 100 µM (inactive) | > 100 µM (inactive) | > 100 µM (inactive) | 68.7 µM (inactive) | > 100 µM (inactive) | > 100 µM (inactive) | 46.6 µM (inactive) | > 100 µM (inactive)
6 | C[C@]12OC(=O)[C@]3(O)CC[C@H]4[C@@H](C[C@@H](O)[C@@]5(Cl)CC=CC(=O)[C@]45C)[C@]45OCC6C(=O)O[C@@H]1C[C@@]6(C)[C@H](C4=O)[C@@]32O5 (stereo partly specified) | 0.617 µM (active) | 3.82 µM (inactive) | 0.0946 µM (active) | 0.356 µM (active) | 1.55 µM (inactive) | 0.951 µM (active) | 0.774 µM (active) | 1.16 µM (inactive) | 1.3 µM (inactive) | 1.91 µM (inactive) | 1.5 µM (inactive) | 0.759 µM (active) | 1.49 µM (inactive) | 1.17 µM (inactive) | 0.879 µM (active) | 1.23 µM (inactive)
7 | NCCCNCCCCN1CC1 | 0.713 µM (active) | 2.12 µM (inactive) | 7.06 µM (inactive) | 0.601 µM (active) | 7.05 µM (inactive) | 0.637 µM (active) | 28.9 µM (inactive) | 3.63 µM (inactive) | 4.57 µM (inactive) | 8.49 µM (inactive) | 1.6 µM (inactive) | 0.836 µM (active) | 7.76 µM (inactive) | 1.69 µM (inactive) | 3.99 µM (inactive) | 7.18 µM (inactive)
8 | CO[C@]1(c2ccc([N+](=O)[O-])cc2)Oc2ccccc2C(=O)[C@@]1(Nc1ccc(C=O)cc1)OC | > 10 µM (inactive) | > 10 µM (inactive) | > 10 µM (inactive) | > 10 µM (inactive) | > 10 µM (inactive) | > 10 µM (inactive) | > 10 µM (inactive) | > 10 µM (inactive) | > 10 µM (inactive) | > 10 µM (inactive) | > 10 µM (inactive) | > 10 µM (inactive) | > 10 µM (inactive) | > 10 µM (inactive) | > 10 µM (inactive) | > 10 µM (inactive)
9 | COc1cc(C(=O)OC2CC(C)=CC[C@@]3(C)CC[C@](O)(C(C)C)C23)ccc1O (stereo partly specified) | 17.3 µM (inactive) | 17.9 µM (inactive) | 14.5 µM (inactive) | 31.6 µM (inactive) | 15.9 µM (inactive) | 16.2 µM (inactive) | 12.4 µM (inactive) | 18.3 µM (inactive) | 18.6 µM (inactive) | 15.6 µM (inactive) | 18.5 µM (inactive) | 14.1 µM (inactive) | 30.3 µM (inactive) | 16.4 µM (inactive) | – | 16.4 µM (inactive)
10 | O=C1C=C2C(=NC34CCCCC3C(c3ccccc3)C3=C(c5ccccc5CC3)N24)c2ccccc21 (stereo unspecified) | > 10 µM (inactive) | > 10 µM (inactive) | > 10 µM (inactive) | > 10 µM (inactive) | > 10 µM (inactive) | > 10 µM (inactive) | > 10 µM (inactive) | > 10 µM (inactive) | > 10 µM (inactive) | > 10 µM (inactive) | > 10 µM (inactive) | > 10 µM (inactive) | > 10 µM (inactive) | > 10 µM (inactive) | > 10 µM (inactive) | –
11 | CSc1c(C(=O)Nc2ccc(Cl)cc2)c(N)n(N)c(=O)c1C#N | > 100 µM (inactive) | > 100 µM (inactive) | 54.1 µM (inactive) | 78.7 µM (inactive) | > 100 µM (inactive) | 31.8 µM (inactive) | 75.3 µM (inactive) | > 100 µM (inactive) | > 100 µM (inactive) | 89.7 µM (inactive) | 48.8 µM (inactive) | > 100 µM (inactive) | > 100 µM (inactive) | > 100 µM (inactive) | 24.5 µM (inactive) | 31.6 µM (inactive)
12 | N#Cc1cc2c(cc1C#N)SCCSCCCSCCS2 | 5.09 µM (inactive) | 56.5 µM (inactive) | > 72.4 µM (inactive) | > 10 µM (inactive) | > 100 µM (inactive) | 6.31 µM (inactive) | 28.2 µM (inactive) | > 100 µM (inactive) | 20.1 µM (inactive) | 41.1 µM (inactive) | 25.2 µM (inactive) | 10.4 µM (inactive) | > 100 µM (inactive) | 17.8 µM (inactive) | 9.93 µM (inactive) | > 53.3 µM (inactive)
13 | CCOc1cc(CCNC)c2c(ccc3ccc(OC)c(O)c32)c1OC | 17.5 µM (inactive) | 15.2 µM (inactive) | 15.5 µM (inactive) | 15 µM (inactive) | 14.8 µM (inactive) | 11.5 µM (inactive) | 8.47 µM (inactive) | 2.49 µM (inactive) | 6.92 µM (inactive) | 17.9 µM (inactive) | 14.5 µM (inactive) | – | 17.9 µM (inactive) | 14.2 µM (inactive) | 15.8 µM (inactive) | 15.6 µM (inactive)
14 | COc1cc(Br)c(CC2C3=C(CCN2C(=O)C2CCC2)CC2(CC3)OCCO2)cc1O (stereo unspecified) | 89.9 µM (inactive) | > 100 µM (inactive) | 28.8 µM (inactive) | 46.7 µM (inactive) | 24.2 µM (inactive) | > 100 µM (inactive) | 28.6 µM (inactive) | 34.4 µM (inactive) | 65 µM (inactive) | > 100 µM (inactive) | 33.5 µM (inactive) | > 100 µM (inactive) | 93.5 µM (inactive) | > 100 µM (inactive) | 53.8 µM (inactive) | –
15 | CSc1nc(SC)c2c(C)cn(C3OC(C)C(O)C(O)C3O)c2n1 (stereo unspecified) | > 100 µM (inactive) | 62.5 µM (inactive) | 57.5 µM (inactive) | 46.2 µM (inactive) | 53.7 µM (inactive) | 31.8 µM (inactive) | 58.9 µM (inactive) | 67.6 µM (inactive) | > 100 µM (inactive) | 66.7 µM (inactive) | 48.8 µM (inactive) | 21 µM (inactive) | 84.3 µM (inactive) | 73.5 µM (inactive) | 76.6 µM (inactive) | 36.3 µM (inactive)
16 | COC(=O)[C@@]1(NC(=O)C(CC(=O)OC(C)(C)C)NC(=O)OC(C)(C)C)C[C@H]1C (stereo partly specified) | > 100 µM (inactive) | > 100 µM (inactive) | > 100 µM (inactive) | – | > 100 µM (inactive) | > 100 µM (inactive) | > 100 µM (inactive) | > 100 µM (inactive) | > 100 µM (inactive) | > 100 µM (inactive) | > 100 µM (inactive) | > 100 µM (inactive) | > 100 µM (inactive) | > 100 µM (inactive) | > 100 µM (inactive) | > 100 µM (inactive)
17 | COc1ccc(-c2oc3cc(OC)c(OC)c(O)c3c(=O)c2OC)cc1 | 21.9 µM (inactive) | 58.7 µM (inactive) | > 100 µM (inactive) | 29.4 µM (inactive) | > 100 µM (inactive) | 53.5 µM (inactive) | 41.6 µM (inactive) | > 100 µM (inactive) | > 100 µM (inactive) | 48.9 µM (inactive) | – | 30.9 µM (inactive) | > 100 µM (inactive) | 30.6 µM (inactive) | 21.4 µM (inactive) | > 100 µM (inactive)
